Measured values as given in publication PMC11281459 (Viruses, 2024).

Assays:
SARS-CoV-2 [1] = assay: microbe, parasite or virus in culture; assay type: cell-based; conditions: Severe acute respiratory syndrome coronavirus 2, VeroE6/TMPRSS2, 72 h, read-out: EC50 across SARS-CoV-2 Omicron subvariants (CPE by CellTiter-Glo)
SARS-CoV-2 [2] = assay: microbe, parasite or virus in culture; assay type: cell-based; conditions: Severe acute respiratory syndrome coronavirus 2, VeroE6/TMPRSS2, 48 h, read-out: IC50 values across different SARS-CoV-2 Omicron subvariants

## CNC(=O)C(=O)[C@H](CCC(C)(F)F)NC(=O)[C@@H]1[C@H]2CCC[C@H]2CN1C(=O)[C@@H](NC(=O)OC)C(C)(C)C [MK-7845]
SARS-CoV-2 [1]
  EC50: 90 to 330 nM
SARS-CoV-2 [2]
  IC50: 80 to 300 nM
